Experimental data from ChEMBL document CHEMBL6114946, “Development and characterization of pyridyl carboxamides as potent and highly selective Nav1.8 inhibitors” (Bioorg Med Chem Lett, 2025).
Converted amounts (≈) assume the structure as drawn. The source made the active and inactive calls. The rule behind the calls is not given here.

Target: T1, Sodium channel protein type 10 subunit alpha (Homo sapiens, UniProt Q9Y5Y9)
Assay: Inhibition of human Nav1.8 with resting membrane potential at half inactivated state by PatchXpress high-throughput electrophysiology method
Conditions: not given
Target sequence in this assay (Q9Y5Y9 whole entry): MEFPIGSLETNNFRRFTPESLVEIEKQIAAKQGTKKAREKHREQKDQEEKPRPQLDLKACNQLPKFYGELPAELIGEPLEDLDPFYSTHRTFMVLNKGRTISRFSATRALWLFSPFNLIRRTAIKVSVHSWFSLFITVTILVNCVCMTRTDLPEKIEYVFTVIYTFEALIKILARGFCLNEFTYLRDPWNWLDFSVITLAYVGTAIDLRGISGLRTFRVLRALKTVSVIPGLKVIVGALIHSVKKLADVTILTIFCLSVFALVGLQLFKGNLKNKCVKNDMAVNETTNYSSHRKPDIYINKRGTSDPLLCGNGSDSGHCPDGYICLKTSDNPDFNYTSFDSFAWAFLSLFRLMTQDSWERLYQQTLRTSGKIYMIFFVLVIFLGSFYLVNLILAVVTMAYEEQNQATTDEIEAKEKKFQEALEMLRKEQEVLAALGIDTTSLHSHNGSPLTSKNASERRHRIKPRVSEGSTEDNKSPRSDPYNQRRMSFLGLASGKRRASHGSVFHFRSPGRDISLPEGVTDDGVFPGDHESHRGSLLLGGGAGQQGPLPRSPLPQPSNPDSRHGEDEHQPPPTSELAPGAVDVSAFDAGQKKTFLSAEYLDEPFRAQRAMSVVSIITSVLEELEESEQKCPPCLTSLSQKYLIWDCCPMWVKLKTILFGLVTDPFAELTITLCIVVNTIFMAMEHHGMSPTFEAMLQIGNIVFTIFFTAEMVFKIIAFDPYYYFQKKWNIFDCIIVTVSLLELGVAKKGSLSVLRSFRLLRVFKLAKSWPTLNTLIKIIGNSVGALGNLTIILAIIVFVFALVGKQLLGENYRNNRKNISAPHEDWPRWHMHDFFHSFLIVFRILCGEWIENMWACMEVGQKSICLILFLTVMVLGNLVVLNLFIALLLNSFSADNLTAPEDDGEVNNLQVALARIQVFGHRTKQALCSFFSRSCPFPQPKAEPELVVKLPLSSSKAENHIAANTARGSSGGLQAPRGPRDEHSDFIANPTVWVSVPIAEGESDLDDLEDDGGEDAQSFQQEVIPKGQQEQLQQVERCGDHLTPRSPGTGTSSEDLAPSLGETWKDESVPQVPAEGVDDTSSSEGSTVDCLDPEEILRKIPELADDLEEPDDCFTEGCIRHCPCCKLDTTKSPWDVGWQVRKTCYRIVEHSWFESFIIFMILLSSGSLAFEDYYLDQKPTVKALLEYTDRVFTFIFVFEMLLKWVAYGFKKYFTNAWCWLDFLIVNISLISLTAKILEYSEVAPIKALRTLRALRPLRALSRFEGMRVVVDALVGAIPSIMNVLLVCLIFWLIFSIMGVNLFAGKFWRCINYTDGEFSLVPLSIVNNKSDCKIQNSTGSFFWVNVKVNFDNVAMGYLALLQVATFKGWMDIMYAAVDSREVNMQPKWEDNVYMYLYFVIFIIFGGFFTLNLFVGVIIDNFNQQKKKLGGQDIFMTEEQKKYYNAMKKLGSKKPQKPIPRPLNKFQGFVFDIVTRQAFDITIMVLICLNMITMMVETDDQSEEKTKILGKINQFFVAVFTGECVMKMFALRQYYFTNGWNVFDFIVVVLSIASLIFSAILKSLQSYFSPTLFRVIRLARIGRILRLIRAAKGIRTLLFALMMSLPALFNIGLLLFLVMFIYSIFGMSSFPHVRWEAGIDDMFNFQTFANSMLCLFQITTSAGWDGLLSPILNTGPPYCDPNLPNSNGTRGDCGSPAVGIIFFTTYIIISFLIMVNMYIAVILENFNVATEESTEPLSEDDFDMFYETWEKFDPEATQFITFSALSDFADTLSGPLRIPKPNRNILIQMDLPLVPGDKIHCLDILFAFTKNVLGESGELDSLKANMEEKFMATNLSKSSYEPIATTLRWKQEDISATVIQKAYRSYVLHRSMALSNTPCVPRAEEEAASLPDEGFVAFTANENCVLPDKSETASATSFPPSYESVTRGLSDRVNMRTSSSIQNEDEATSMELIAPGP

IC50 [nM]	Compound
20	CS(=O)(=O)c1cccc(NC(=O)c2cc(C(F)(F)F)cnc2Oc2ccc(OC(F)(F)F)cc2)c1
56	O=C(Nc1ccc[n+]([O-])c1)c1cc(C(F)(F)F)cnc1Oc1ccc(F)cc1Cl
> 10000	COc1cc(F)ccc1Oc1ccncc1C(=O)Nc1cccc(S(C)(=O)=O)c1
> 10000	COCCCNC(=O)c1cc(C(F)(F)F)cnc1Oc1ccc(F)cc1OC

Target: T1, Sodium channel protein type 10 subunit alpha
Assay: Inhibition of Nav1.8 (unknown origin) at 10 uM by Ionflux high-throughput automated patch method
Conditions: not given
Target sequence in this assay (Q9Y5Y9 whole entry, looked up): as the sequence (Q9Y5Y9 whole entry) above

inhibition	Compound
Active	CS(=O)(=O)c1cccc(NC(=O)c2cc(C(F)(F)F)cnc2Oc2ccc(OC(F)(F)F)cc2)c1
Active	O=C(Nc1ccc[n+]([O-])c1)c1cc(C(F)(F)F)cnc1Oc1ccc(F)cc1Cl
inactive	COc1cc(F)ccc1Oc1ccncc1C(=O)Nc1cccc(S(C)(=O)=O)c1
inactive	COCCCNC(=O)c1cc(C(F)(F)F)cnc1Oc1ccc(F)cc1OC

Test system: not listed separately
Assay: Kinetic solubility of the compound in pH 7.4 phosphate buffered saline measured after 2 hrs by LC/MS analysis
Assay type: physicochemical
Conditions: read-out: Kinetic_solubility

solubility kinetic at 2 h [µg/mL]	Compound
4 (≈ 7.69 µM)	CS(=O)(=O)c1cccc(NC(=O)c2cc(C(F)(F)F)cnc2Oc2ccc(OC(F)(F)F)cc2)c1
0.084 (≈ 0.196 µM)	O=C(Nc1ccc[n+]([O-])c1)c1cc(C(F)(F)F)cnc1Oc1ccc(F)cc1Cl

Test system: not listed separately
Assay: Clearance in rat at 1 mg/kg
Assay type: ADME, organism-based
Conditions: in vivo

clearance [mL/min/kg]	Compound
3.3	O=C(Nc1ccc[n+]([O-])c1)c1cc(C(F)(F)F)cnc1Oc1ccc(F)cc1Cl

Target: Sodium channel protein type 10 subunit alpha (Mus musculus, UniProt Q6QIY3)
Sequence (Q6QIY3 whole entry): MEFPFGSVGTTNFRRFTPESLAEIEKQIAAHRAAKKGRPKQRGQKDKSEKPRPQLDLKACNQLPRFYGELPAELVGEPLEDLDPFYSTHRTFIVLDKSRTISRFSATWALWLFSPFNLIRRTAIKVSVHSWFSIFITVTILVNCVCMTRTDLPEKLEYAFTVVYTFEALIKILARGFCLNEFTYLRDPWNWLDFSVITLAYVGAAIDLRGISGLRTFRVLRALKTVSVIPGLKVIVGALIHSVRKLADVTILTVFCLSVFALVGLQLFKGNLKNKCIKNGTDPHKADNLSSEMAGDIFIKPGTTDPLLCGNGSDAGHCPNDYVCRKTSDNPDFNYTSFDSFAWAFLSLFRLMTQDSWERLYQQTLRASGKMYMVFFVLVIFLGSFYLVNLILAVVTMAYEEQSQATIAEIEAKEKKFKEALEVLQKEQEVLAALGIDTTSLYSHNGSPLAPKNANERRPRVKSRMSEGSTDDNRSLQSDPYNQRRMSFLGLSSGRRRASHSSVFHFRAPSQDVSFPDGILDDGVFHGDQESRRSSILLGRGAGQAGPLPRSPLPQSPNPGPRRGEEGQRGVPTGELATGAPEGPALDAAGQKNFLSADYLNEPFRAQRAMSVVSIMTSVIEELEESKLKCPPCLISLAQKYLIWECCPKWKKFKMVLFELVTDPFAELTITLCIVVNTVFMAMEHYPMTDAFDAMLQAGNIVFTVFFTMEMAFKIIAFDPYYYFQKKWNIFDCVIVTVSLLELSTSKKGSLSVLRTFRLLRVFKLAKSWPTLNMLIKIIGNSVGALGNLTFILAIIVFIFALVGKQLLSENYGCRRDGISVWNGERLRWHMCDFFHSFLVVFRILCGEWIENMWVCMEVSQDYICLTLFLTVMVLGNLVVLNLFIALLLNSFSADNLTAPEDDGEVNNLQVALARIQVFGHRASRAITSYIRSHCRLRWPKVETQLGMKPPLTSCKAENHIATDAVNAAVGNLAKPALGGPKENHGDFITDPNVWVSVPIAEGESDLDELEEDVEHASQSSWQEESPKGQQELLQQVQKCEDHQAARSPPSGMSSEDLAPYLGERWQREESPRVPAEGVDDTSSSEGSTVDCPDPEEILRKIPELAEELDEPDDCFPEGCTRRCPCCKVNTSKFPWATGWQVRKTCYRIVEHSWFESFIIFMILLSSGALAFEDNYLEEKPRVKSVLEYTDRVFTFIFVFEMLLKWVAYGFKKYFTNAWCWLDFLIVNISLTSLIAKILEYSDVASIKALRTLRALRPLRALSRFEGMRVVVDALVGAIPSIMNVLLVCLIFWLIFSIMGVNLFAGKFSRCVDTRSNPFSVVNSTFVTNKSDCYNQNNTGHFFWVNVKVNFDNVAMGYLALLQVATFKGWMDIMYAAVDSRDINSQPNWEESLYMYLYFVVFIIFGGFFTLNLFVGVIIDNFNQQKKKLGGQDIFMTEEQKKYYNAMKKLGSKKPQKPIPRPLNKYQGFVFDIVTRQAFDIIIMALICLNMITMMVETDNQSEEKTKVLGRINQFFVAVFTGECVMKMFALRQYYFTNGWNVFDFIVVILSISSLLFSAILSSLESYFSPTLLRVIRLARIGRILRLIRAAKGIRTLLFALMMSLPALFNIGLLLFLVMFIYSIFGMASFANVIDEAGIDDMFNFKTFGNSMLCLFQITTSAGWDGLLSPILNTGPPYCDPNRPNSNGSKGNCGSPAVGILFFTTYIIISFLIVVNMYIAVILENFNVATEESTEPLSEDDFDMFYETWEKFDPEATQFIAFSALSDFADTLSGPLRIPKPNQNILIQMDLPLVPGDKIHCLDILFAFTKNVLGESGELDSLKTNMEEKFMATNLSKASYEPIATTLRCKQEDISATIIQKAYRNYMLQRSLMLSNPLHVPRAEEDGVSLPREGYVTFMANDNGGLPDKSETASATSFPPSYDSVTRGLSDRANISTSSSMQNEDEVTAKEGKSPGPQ
Assay: Inhibition of mouse Nav1.8 with resting membrane potential at half inactivated state by PatchXpress high-throughput electrophysiology method
Conditions: not given

IC50 [nM]	Compound
920	O=C(Nc1ccc[n+]([O-])c1)c1cc(C(F)(F)F)cnc1Oc1ccc(F)cc1Cl

Target: Voltage-gated inwardly rectifying potassium channel KCNH2 (Homo sapiens, UniProt Q12809)
Assay: Inhibition of human ERG
Assay type: toxicity
Conditions: not given

Compound	IC50 [nM]
O=C(Nc1ccc[n+]([O-])c1)c1cc(C(F)(F)F)cnc1Oc1ccc(F)cc1Cl	15000

Test system: not listed separately
Assay: Protein binding in human plasma assessed as unbound fraction
Assay type: ADME, cell-free
Conditions: not given

fraction unbound	Compound
0.1	O=C(Nc1ccc[n+]([O-])c1)c1cc(C(F)(F)F)cnc1Oc1ccc(F)cc1Cl

Test system: not listed separately
Assay: Stability in human liver microsomes assessed as parent compound remaining measured after 60 mins
Assay type: ADME, Microsome
Conditions: read-out: Stability

remaining at 1 h [%]	Compound
95	O=C(Nc1ccc[n+]([O-])c1)c1cc(C(F)(F)F)cnc1Oc1ccc(F)cc1Cl

Target: Cytochrome P450 3A4 (Homo sapiens, UniProt P08684)
Sequence (P08684 whole entry): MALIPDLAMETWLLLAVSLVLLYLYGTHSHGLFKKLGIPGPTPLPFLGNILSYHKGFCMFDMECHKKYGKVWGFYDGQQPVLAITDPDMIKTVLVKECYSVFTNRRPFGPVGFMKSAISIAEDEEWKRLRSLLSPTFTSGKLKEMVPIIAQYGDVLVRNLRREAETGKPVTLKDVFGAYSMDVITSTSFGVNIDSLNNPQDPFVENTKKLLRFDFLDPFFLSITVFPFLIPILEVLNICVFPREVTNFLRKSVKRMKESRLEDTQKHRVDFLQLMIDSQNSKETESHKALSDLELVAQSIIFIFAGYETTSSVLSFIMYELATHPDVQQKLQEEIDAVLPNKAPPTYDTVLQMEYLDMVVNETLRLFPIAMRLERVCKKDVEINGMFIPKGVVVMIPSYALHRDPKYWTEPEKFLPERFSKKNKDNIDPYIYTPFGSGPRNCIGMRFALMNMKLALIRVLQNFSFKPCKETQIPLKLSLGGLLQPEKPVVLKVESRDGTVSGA
Assay: Inhibition of CYP3A4 (unknown origin)
Assay type: ADME
Conditions: not given

INH [µM]	Compound
> 30	O=C(Nc1ccc[n+]([O-])c1)c1cc(C(F)(F)F)cnc1Oc1ccc(F)cc1Cl

Target: T2, Cytochrome P450 1A2 (Homo sapiens, UniProt P05177)
T2 sequence (P05177 whole entry): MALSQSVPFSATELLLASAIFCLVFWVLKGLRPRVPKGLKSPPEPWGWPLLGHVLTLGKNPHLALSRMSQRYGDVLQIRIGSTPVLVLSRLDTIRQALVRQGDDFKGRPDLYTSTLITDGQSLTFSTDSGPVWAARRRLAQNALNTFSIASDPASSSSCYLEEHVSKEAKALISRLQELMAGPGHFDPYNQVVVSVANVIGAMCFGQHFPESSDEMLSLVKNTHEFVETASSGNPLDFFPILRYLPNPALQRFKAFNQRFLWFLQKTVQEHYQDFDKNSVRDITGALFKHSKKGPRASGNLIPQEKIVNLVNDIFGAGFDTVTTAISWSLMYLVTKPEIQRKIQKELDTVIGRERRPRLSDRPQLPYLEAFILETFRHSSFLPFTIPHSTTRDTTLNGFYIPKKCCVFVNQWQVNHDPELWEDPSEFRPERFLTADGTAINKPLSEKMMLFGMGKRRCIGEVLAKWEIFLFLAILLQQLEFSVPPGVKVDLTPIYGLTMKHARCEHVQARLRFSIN
Assay: Inhibition of CYP1A2 (unknown origin)
Assay type: ADME
Conditions: not given

INH [µM]	Compound
> 30	O=C(Nc1ccc[n+]([O-])c1)c1cc(C(F)(F)F)cnc1Oc1ccc(F)cc1Cl

Test system: not listed separately
Assay: Genotoxicity in Salmonella typhimurium by Ames test
Assay type: toxicity
Conditions: salmonella enterica subsp. enterica serovar typhimurium

Compound	Activity
O=C(Nc1ccc[n+]([O-])c1)c1cc(C(F)(F)F)cnc1Oc1ccc(F)cc1Cl	Non-toxic
